# Assay results as given in the supplement of paper PMC10307832.
# What was measured:
# Assay in all cases: relative viability (nuclei count vs DMSO), 5 days (fraction); higher = more cells survive
# NCI-H1666 = system: NCI-H1666
# Procedure, shortened: (§1)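 Lung cancer cell lines, seeded in 1536-well plates, were treated the following day by pin tool with a single drug or with five library-drug doses (not always all listed) in √10 steps on top of a fixed anchor-drug dose. Cells were fixed and nuclei stained in one step after 5 days, and nuclei were counted. Relative viability is the nuclei count for treated wells divided by that for vehicle wells, reported as medians of duplicate plates.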
# HARA = system: HARA
# Procedure, shortened: as §1
# LOU-NH91 = system: LOU-NH91
# Procedure, shortened: as §1
# NCI-H1651 = system: NCI-H1651
# Procedure, shortened: as §1
# NCI-H838 = system: NCI-H838
# Procedure, shortened: as §1
# NCI-H1734 = system: NCI-H1734
# Procedure, shortened: as §1
# NCI-H1975 = system: NCI-H1975
# Procedure, shortened: as §1
# CAL-12T = system: CAL-12T
# Procedure, shortened: as §1
# NCI-H647 = system: NCI-H647
# Procedure, shortened: as §1
# NCI-H727 = system: NCI-H727
# Procedure, shortened: as §1
# NCI-H2126 = system: NCI-H2126
# Procedure, shortened: as §1
structure (smiles),measurement,setting,value
CCNC(=O)c1noc(-c2cc(C(C)C)c(O)cc2O)c1-c1ccc(CN2CCOCC2)cc1 [Luminespib] + CC(C)C[C@H](NC(=O)[C@H](Cc1ccccc1)NC(=O)c1cnccn1)B(O)O [Bortezomib] (partner 0.002 µM),relative viability,NCI-H1666; first compound 0.06325 µM,0.725
same,relative viability,NCI-H1666; first compound 0.2 µM,0.74
same,relative viability,HARA; first compound 0.002 µM,1.12
same,relative viability,HARA; first compound 0.006325 µM,1
same,relative viability,HARA; first compound 0.02 µM,1.14
same,relative viability,HARA; first compound 0.06325 µM,0.474
same,relative viability,HARA; first compound 0.2 µM,0.0833
same,relative viability,LOU-NH91; first compound 0.002 µM,0.513
same,relative viability,LOU-NH91; first compound 0.006325 µM,0.484
same,relative viability,LOU-NH91; first compound 0.02 µM,0.518
same,relative viability,LOU-NH91; first compound 0.06325 µM,0.451
same,relative viability,LOU-NH91; first compound 0.2 µM,0.389
same,relative viability,NCI-H1651; first compound 0.002 µM,0.947
same,relative viability,NCI-H1651; first compound 0.006325 µM,0.864
same,relative viability,NCI-H1651; first compound 0.02 µM,0.91
same,relative viability,NCI-H1651; first compound 0.06325 µM,0.89
same,relative viability,NCI-H1651; first compound 0.2 µM,0.793
same,relative viability,NCI-H838; first compound 0.002 µM,0.877
same,relative viability,NCI-H838; first compound 0.006325 µM,0.723
same,relative viability,NCI-H838; first compound 0.02 µM,0.389
same,relative viability,NCI-H838; first compound 0.06325 µM,0.0924
same,relative viability,NCI-H838; first compound 0.2 µM,0.0934
same,relative viability,NCI-H1734; first compound 0.002 µM,1.06
same,relative viability,NCI-H1734; first compound 0.006325 µM,0.823
same,relative viability,NCI-H1734; first compound 0.02 µM,0.698
same,relative viability,NCI-H1734; first compound 0.06325 µM,0.118
same,relative viability,NCI-H1734; first compound 0.2 µM,0.117
same,relative viability,NCI-H1975; first compound 0.002 µM,0.444
same,relative viability,NCI-H1975; first compound 0.006325 µM,0.389
same,relative viability,NCI-H1975; first compound 0.02 µM,0.219
same,relative viability,NCI-H1975; first compound 0.06325 µM,0.149
same,relative viability,NCI-H1975; first compound 0.2 µM,0.119
same,relative viability,CAL-12T; first compound 0.002 µM,1.04
same,relative viability,CAL-12T; first compound 0.006325 µM,0.929
same,relative viability,CAL-12T; first compound 0.02 µM,0.539
same,relative viability,CAL-12T; first compound 0.06325 µM,0.147
same,relative viability,CAL-12T; first compound 0.2 µM,0.149
same,relative viability,NCI-H647; first compound 0.002 µM,0.999
same,relative viability,NCI-H647; first compound 0.006325 µM,0.987
same,relative viability,NCI-H647; first compound 0.02 µM,0.29
same,relative viability,NCI-H647; first compound 0.06325 µM,0.0859
same,relative viability,NCI-H647; first compound 0.2 µM,0.0972
same,relative viability,NCI-H727; first compound 0.002 µM,0.802
same,relative viability,NCI-H727; first compound 0.006325 µM,0.782
same,relative viability,NCI-H727; first compound 0.02 µM,0.379
same,relative viability,NCI-H727; first compound 0.06325 µM,0.23
same,relative viability,NCI-H727; first compound 0.2 µM,0.215
same,relative viability,NCI-H2126; first compound 0.002 µM,1.09
same,relative viability,NCI-H2126; first compound 0.006325 µM,1.03
same,relative viability,NCI-H2126; first compound 0.02 µM,0.79
same,relative viability,NCI-H2126; first compound 0.06325 µM,1.07
same,relative viability,NCI-H2126; first compound 0.2 µM,0.823
